Experimental data taken from ChEMBL document CHEMBL5214915 (Eur J Med Chem, 2021).
In brackets after ≈: the same amount, converted by molar mass.

What was measured:
[1] = test system: Mycobacterium tuberculosis; assay: Antibacterial activity against Mycobacterium tuberculosis incubated for 1 to 2 weeks in GastFe medium; assay type: functional; conditions: time 1-2 weeks
[2] = test system: Mycobacterium tuberculosis; assay: Antibacterial activity against Mycobacterium tuberculosis incubated for 1 to 2 weeks in 7H9/ADC/Tw medium; assay type: functional; conditions: time 1-2 weeks
[3] = test system: Mycobacterium tuberculosis; assay: Antibacterial activity against Mycobacterium tuberculosis incubated for 1 to 2 weeks in 7H9/DPPC/casitone/Tx medium; assay type: functional; conditions: time 1-2 weeks
[4] = test system: Vero; assay: Cytotoxicity against African green monkey Vero cells measured after 72 hrs by tetrazolium-based colorimetric MTT assay; assay type: toxicity, cell-based; conditions: chlorocebus sabaeus
[5] = Mycobacterium tuberculosis, read-out: MIC99

Nc1cccc(F)c1C(=O)N1CCCCC1
MIC99 [1, 5]: > 50 µM | MIC99 [2, 5]: > 50 µM | MIC99 [3, 5]: > 50 µM

CC(C)NC(=O)c1c(N)cccc1F
MIC99 [1, 5]: > 50 µM | MIC99 [2, 5]: > 50 µM | MIC99 [3, 5]: > 50 µM

Nc1cccc(F)c1C(=O)NNc1ccc(C(F)(F)F)cc1
MIC99 [1, 5]: 11.4 µM (≈ 3.56 µg/mL) | CC50 [4]: 1360 µM | MIC99 [2, 5]: 45.5 µM (≈ 14.2 µg/mL) | MIC99 [3, 5]: 2.84 µM (≈ 0.89 µg/mL)

Nc1cccc(F)c1C(Nc1ccc(F)cc1)C(F)(F)F (stereo not drawn)
MIC99 [1, 5]: 50 µM (≈ 15.1 µg/mL) | MIC99 [2, 5]: 50 µM (≈ 15.1 µg/mL) | MIC99 [3, 5]: 50 µM (≈ 15.1 µg/mL)

Nc1cccc(F)c1C(=O)NNc1cc(Cl)ccc1Cl
MIC99 [1, 5]: 25 µM (≈ 7.85 µg/mL) | CC50 [4]: > 1800 µM | MIC99 [2, 5]: > 50 µM | MIC99 [3, 5]: 6.25 µM (≈ 1.96 µg/mL)

Cl.Nc1cccc(F)c1C(=O)NNc1ccccc1
MIC99 [1]: 2.3 µM | CC50 [4]: > 1800 µM | MIC99 [3]: 1.3 µM

Nc1cccc(F)c1C(=O)Nc1ccc(F)cc1
MIC99 [1, 5]: > 50 µM | MIC99 [2, 5]: > 50 µM | MIC99 [3, 5]: > 50 µM

Nc1cccc(F)c1C(=O)NC1CC1
MIC99 [1, 5]: > 50 µM | MIC99 [2, 5]: > 50 µM | MIC99 [3, 5]: > 50 µM

Nc1cccc(F)c1C(=O)NNc1ccc(Cl)cc1
MIC99 [1, 5]: 3.12 µM (≈ 0.874 µg/mL) | CC50 [4]: 373 µM | MIC99 [2, 5]: 12.6 µM (≈ 3.51 µg/mL) | MIC99 [3, 5]: 1.56 µM (≈ 0.436 µg/mL)

Nc1cccc(F)c1C(=O)N1CCOCC1
MIC99 [1, 5]: > 50 µM | MIC99 [2, 5]: > 50 µM | MIC99 [3, 5]: > 50 µM

Nc1cccc(F)c1C(=O)NNc1cc(Cl)cc(Cl)c1
MIC99 [1, 5]: 25 µM (≈ 7.85 µg/mL) | MIC99 [2, 5]: > 50 µM | MIC99 [3, 5]: 6.25 µM (≈ 1.96 µg/mL)

Nc1cccc(F)c1C(=O)NNc1ccccc1
CC50 [4]: 2030 µM | MIC99 [2]: 12.5 µM (≈ 3.07 µg/mL) | MIC99 [3, 5]: 1.56 µM (≈ 0.383 µg/mL)

Nc1cccc(F)c1C(=O)NNc1ccc(Cl)cc1Cl
MIC99 [1, 5]: 6.25 µM (≈ 1.96 µg/mL) | CC50 [4]: 1040 µM | MIC99 [2, 5]: 50 µM (≈ 15.7 µg/mL) | MIC99 [3, 5]: 3.12 µM (≈ 0.982 µg/mL)

CONC(=O)c1c(N)cccc1F
MIC99 [1, 5]: > 50 µM | MIC99 [2, 5]: > 50 µM | MIC99 [3, 5]: > 50 µM

Nc1cccc(F)c1C(=O)NNc1cccc([N+](=O)[O-])c1
MIC99 [1, 5]: 25 µM (≈ 7.26 µg/mL) | CC50 [4]: 1300 µM | MIC99 [2, 5]: > 50 µM | MIC99 [3, 5]: 6.25 µM (≈ 1.81 µg/mL)

Cc1nnc(-c2c(N)cccc2F)o1
MIC99 [1, 5]: > 50 µM | MIC99 [2, 5]: > 50 µM | MIC99 [3, 5]: > 50 µM

NC(=O)c1c(N)cccc1F
MIC99 [1, 5]: > 50 µM | MIC99 [2, 5]: > 50 µM | MIC99 [3, 5]: > 50 µM

CC(C)(C)OC(=O)NNC(=O)c1c(N)cccc1F
MIC99 [1, 5]: > 50 µM | MIC99 [2, 5]: > 50 µM | MIC99 [3, 5]: > 50 µM

Nc1cccc(F)c1C(=O)NNC1CCCCC1
MIC99 [1, 5]: 50 µM (≈ 12.6 µg/mL) | CC50 [4]: 909 µM | MIC99 [2, 5]: 9.4 µM (≈ 2.36 µg/mL) | MIC99 [3, 5]: 9.4 µM (≈ 2.36 µg/mL)

Nc1cccc(F)c1C(=O)NC1CCC1
MIC99 [1, 5]: > 50 µM | MIC99 [2, 5]: > 50 µM | MIC99 [3, 5]: > 50 µM

COc1ccc(NNC(=O)c2c(N)cccc2F)cc1
MIC99 [1, 5]: 0.78 µM (≈ 0.215 µg/mL) | CC50 [4]: 1310 µM | MIC99 [2, 5]: 12.5 µM (≈ 3.44 µg/mL) | MIC99 [3, 5]: 1.56 µM (≈ 0.429 µg/mL)

Nc1cccc(F)c1C(=O)NNc1ccc([N+](=O)[O-])cc1[N+](=O)[O-]
MIC99 [1, 5]: > 50 µM | MIC99 [2, 5]: > 50 µM | MIC99 [3, 5]: > 50 µM

Nc1cccc(F)c1C(=O)NNc1ccccc1[N+](=O)[O-]
MIC99 [1, 5]: > 50 µM | MIC99 [2, 5]: > 50 µM | MIC99 [3, 5]: 50 µM (≈ 14.5 µg/mL)

Nc1cccc(F)c1C(=O)NNc1cccc(Cl)c1Cl
MIC99 [1, 5]: 12.5 µM (≈ 3.93 µg/mL) | CC50 [4]: > 1800 µM | MIC99 [2, 5]: 50 µM (≈ 15.7 µg/mL) | MIC99 [3, 5]: 6.25 µM (≈ 1.96 µg/mL)

Cc1nc(-c2c(N)cccc2F)no1
MIC99 [1, 5]: > 50 µM | MIC99 [2, 5]: > 50 µM | MIC99 [3, 5]: > 50 µM

CN1CCN(C(=O)c2c(N)cccc2F)CC1
MIC99 [1, 5]: > 50 µM | MIC99 [2, 5]: > 50 µM | MIC99 [3, 5]: > 50 µM

Nc1cccc(F)c1C(=O)NO
MIC99 [1, 5]: > 50 µM | MIC99 [2, 5]: > 50 µM | MIC99 [3, 5]: > 50 µM

Nc1cccc(F)c1C(=O)NNc1cccc(F)c1
MIC99 [1, 5]: 6.25 µM (≈ 1.65 µg/mL) | CC50 [4]: 1360 µM | MIC99 [2, 5]: 12.5 µM (≈ 3.29 µg/mL) | MIC99 [3, 5]: 1.56 µM (≈ 0.411 µg/mL)

Nc1cccc(F)c1C(=O)NNCc1ccccc1
MIC99 [1, 5]: > 50 µM | MIC99 [2, 5]: > 50 µM | MIC99 [3, 5]: 50 µM (≈ 13 µg/mL)

Nc1cccc(F)c1C(=O)NNc1c(Cl)cc(Cl)cc1Cl
MIC99 [1, 5]: 1.25 µM (≈ 0.436 µg/mL) | CC50 [4]: > 1800 µM | MIC99 [2, 5]: 5 µM (≈ 1.74 µg/mL) | MIC99 [3, 5]: 0.625 µM (≈ 0.218 µg/mL)

Nc1cccc(F)c1C(=O)N1CCCC1
MIC99 [1, 5]: > 50 µM | MIC99 [2, 5]: > 50 µM | MIC99 [3, 5]: > 50 µM

Nc1cccc(F)c1C(=O)NC1CCCCC1
MIC99 [1, 5]: > 50 µM | MIC99 [2, 5]: > 50 µM | MIC99 [3, 5]: > 50 µM

Nc1cccc(F)c1C(N1CCOCC1)C(F)(F)F (stereo not drawn)
MIC99 [1, 5]: 50 µM (≈ 13.9 µg/mL) | MIC99 [2, 5]: 50 µM (≈ 13.9 µg/mL) | MIC99 [3, 5]: 50 µM (≈ 13.9 µg/mL)

Nc1cccc(F)c1-c1nnn[nH]1
MIC99 [1, 5]: > 50 µM | MIC99 [2, 5]: > 50 µM | MIC99 [3, 5]: > 50 µM

Nc1cccc(F)c1C(N1CCSCC1)C(F)(F)F (stereo not drawn)
MIC99 [1, 5]: 50 µM (≈ 14.7 µg/mL) | MIC99 [2, 5]: 50 µM (≈ 14.7 µg/mL) | MIC99 [3, 5]: 50 µM (≈ 14.7 µg/mL)

Nc1cccc(F)c1C(=O)NNc1cccc(Cl)c1
MIC99 [1, 5]: 6.25 µM (≈ 1.75 µg/mL) | CC50 [4]: > 1800 µM | MIC99 [2, 5]: 25 µM (≈ 6.99 µg/mL) | MIC99 [3, 5]: 1.56 µM (≈ 0.436 µg/mL)

Nc1cccc(F)c1C(=O)NNc1ccccc1Cl
MIC99 [1, 5]: 3.12 µM (≈ 0.874 µg/mL) | CC50 [4]: 792 µM | MIC99 [2, 5]: 25 µM (≈ 6.99 µg/mL) | MIC99 [3, 5]: 3.12 µM (≈ 0.874 µg/mL)

Nc1cccc(F)c1C(=O)O
CC50 [4]: 74 µM | MIC99 [2, 5]: 5 µM (≈ 0.776 µg/mL)

NNC(=O)c1ccncc1 [ISONIAZID]
MIC99 [3, 5]: 0.1 µM (≈ 0.0137 µg/mL)

Nc1cccc(F)c1C(=O)NNc1ccc(F)cc1
MIC99 [1, 5]: 2.3 µM (≈ 0.605 µg/mL) | CC50 [4]: 1360 µM | MIC99 [2]: 9.4 µM (≈ 2.47 µg/mL) | MIC99 [3, 5]: 1.56 µM (≈ 0.411 µg/mL)

Nc1cccc(F)c1C(=O)NCCO
MIC99 [1, 5]: > 50 µM | MIC99 [2, 5]: > 50 µM | MIC99 [3, 5]: > 50 µM

Nc1cccc(F)c1C(=O)NNc1ccc(Cl)c(Cl)c1
MIC99 [1, 5]: 12.5 µM (≈ 3.93 µg/mL) | CC50 [4]: > 1800 µM | MIC99 [2, 5]: 25 µM (≈ 7.85 µg/mL) | MIC99 [3, 5]: 1.56 µM (≈ 0.49 µg/mL)

NNC(=O)c1c(N)cccc1F
MIC99 [1, 5]: > 50 µM | MIC99 [2, 5]: > 50 µM | MIC99 [3, 5]: > 50 µM

Cl.Nc1cccc(F)c1C(=O)NNc1ccc(F)cc1
MIC99 [1]: 1.4 µM | CC50 [4]: > 1800 µM | MIC99 [3]: 1.4 µM
